{"source": "paper PMC6315506", "about": "(Viruses, 2018)", "key": {"EBOV": {"system": "EBOV", "settings": "cited from earlier work"}, "HIV-1/H5N1 pseudovirus": {"system": "HIV-1/H5N1 pseudovirus", "test": "organism not typed", "type": "cell-based, influenza A virus A/Goose/Qinghai/59/05 (H5N1)", "settings": "A549, 48 h, read-out: Inhibition HIV-1/H5N1"}, "HIV-1/LASV pseudovirus": {"system": "HIV-1/LASV pseudovirus", "test": "microbe, parasite or virus in culture", "type": "cell-based", "settings": "Human immunodeficiency virus 1, A549, 48 h, read-out: Inhibition HIV-1/LASV"}, "[1]": {"system": "EBOV Mayinga isolate (EBOV-GFP)", "test": "microbe, parasite or virus in culture", "type": "cell-based, Ebola virus", "settings": "for IC50: read-out: IC50 against replication of infectious EBOV"}, "HIV-1/EBOV pseudovirus [2]": {"system": "HIV-1/EBOV pseudovirus"}, "in vitro": {"test": "in vitro", "settings": "human"}, "HIV-1/EBOV pseudovirus [3]": {"system": "HIV-1/EBOV pseudovirus", "test": "organism not typed", "settings": "A549, 48 h, read-out: Inhibition HIV-1/EBOV"}, "HIV-1/EBOV pseudovirus [4]": {"system": "HIV-1/EBOV pseudovirus", "test": "microbe, parasite or virus in culture", "settings": "Zaire ebolavirus, A549, read-out: IC50 (anti-HIV-1/EBOV)"}, "Ebola glycoprotein": {"molecular_target": "Ebola glycoprotein", "settings": "cited from earlier work"}}, "note": "Like-named read-outs stand apart in the source and are kept apart here.", "data": [{"smiles": "CCN(CC)CC(=O)NCc1cc(-c2ccc(I)cc2)no1", "note": "[3,5-Disubstituted isoxazole]", "values": [{"measurement": "IC50", "setting": "EBOV", "value": 2.5, "unit": "µM"}]}, {"smiles": "CN(C)Cc1ccc(-c2cc3cc(Br)ccc3nc2OCc2ccc(Cl)cc2)cc1", "note": "[SYL1712]", "values": [{"measurement": "inhibition at 10 µM", "setting": "HIV-1/H5N1 pseudovirus", "value": 5.75, "unit": "%"}, {"measurement": "inhibition at 10 µM", "setting": "HIV-1/LASV pseudovirus", "value": 55.4, "unit": "%"}, {"measurement": "selective index (SI)", "setting": "[1]", "value": 37.2}, {"measurement": "IC50", "setting": "[1]; Zaire ebolavirus, HeLa, 24 h", "value": 2, "unit": "µM"}, {"measurement": "IC50", "setting": "[1]", "value": 1.99, "unit": "µM"}, {"measurement": "SI (CC50/IC50)", "setting": "HIV-1/EBOV pseudovirus [2]", "value": 225.9}, {"measurement": "IC50", "setting": "HIV-1/EBOV pseudovirus [2]; read-out: IC50 (anti-HIV-1/EBOV)", "value": 0.95, "unit": "µM"}, {"measurement": "viability at 10 µM", "setting": "in vitro", "value": 96.9, "unit": "%"}, {"measurement": "inhibition at 10 µM", "setting": "HIV-1/EBOV pseudovirus [3]", "value": 99.4, "unit": "%"}, {"measurement": "IC50", "setting": "HIV-1/EBOV pseudovirus [4]", "value": "~1", "unit": "µM"}]}, {"smiles": "COc1ccc(S(=O)(=O)N(CC(=O)Nc2ccccc2-c2ccccc2)c2ccc(C)cc2)cc1", "note": "[MBX 2254]", "values": [{"measurement": "IC90", "setting": "EBOV", "value": 3, "unit": "µM"}]}, {"smiles": "CN(C)CCOc1ccc(/C(=C(/CCCl)c2ccccc2)c2ccccc2)cc1", "note": "[Toremifene]", "values": [{"measurement": "Kd", "setting": "Ebola glycoprotein", "value": 16, "unit": "µM"}]}, {"smiles": "O=c1oc2c(O)c(O)cc3c(=O)oc4c(O)c(O)cc1c4c23", "note": "[Ellagic acid]", "values": [{"measurement": "IC50", "setting": "EBOV", "value": 1.4, "unit": "µM"}]}, {"smiles": "FC(F)C(F)(F)C1=Nc2ccccc2N=C(c2ccccc2)C1", "note": "[benzodiazepine]", "values": [{"measurement": "IC90", "setting": "EBOV", "value": 3.5, "unit": "µM"}]}]}
